According to patent publication US11819507B2, “Cholecalciferol sulfate salts and their use for the treatment of vitamin D deficiency” (CFSO GMBH, priority 2015, dated 2023):

Assay: Applying the transdermal formulation of Example 8 to skin; residue on the skin checked by TLC
Format: in vivo
Conditions: about 2 ml of the formulation of Example 8 applied in a thin layer, allowed to penetrate for 4 hours; skin wiped with 96% ethanol cotton pad, extract examined by TLC
Experimental: About 2 ml of the formulation prepared in Example 8 were applied in a thin layer to the skin of a subject and allowed to penetrate for 4 hours. Subsequently, the skin was well wiped using a sterile cotton pad soaked with 96% ethanol. The cotton pad was boiled with additional 96% ethanol and squeezed. The ethanol was evaporated on a rotary evaporator, and a small amount of chloroform-methanol (9:1 Vol./Vol.) mixture was added to the flask.

C=C1CCC(OS(=O)(=O)O)CC1=CC=C1CCCC2(C)C1CCC2C(C)CCCC(C)C.NCCCCC(N)C(=O)O [L-lysine cholecalciferol sulfate]
L-lysine cholecalciferol sulfate remaining on the skin (TLC on silica gel): substantially no
